Literature values as cited in patent US20010006649A1, “STABLE ORAL PHARMACEUTICAL DOSAGE FORMS” (priority 1997, published 2001).

How the values were obtained:
[1] = omeprazole solution, pH-decomposition rate profile
[2] = enteric granule formulations, alkaline stabilizers screened

Compound | pH of maximum stability [1] | stability when exposed to light | optimal pH stability [2]
COc1ccc2[nH]c([S+]([O-])Cc3ncc(C)c(OC)c3C)nc2c1 (stereo not drawn) [omeprazole, 2-[2-(3,5-dimethyl-4-methoxy)-pyridylmethylsulfinyl]-(5-methoxy)-benzimidazole] | 11 |  | 
Cc1c(OCC(F)(F)F)ccnc1C[S+]([O-])c1nc2ccccc2[nH]1 (stereo not drawn) [Lansoprazole, 2-[[[3-methyl-4-(2,2,2-trifluroethoxy)-2-pyridyl]methyl]sulfinyl] benzimidazole] |  | relatively stable | 9
